Data from the supplement of paper PMC11061612.

Tests used:
[1] = tested on: HTC-C3 (Thyroid Gland Carcinoma); assay: Bliss excess, mean over the matrix (fraction); higher = more synergy
How it was run: (§1)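 Bliss excess equals the observed combination effect minus the expected value EA + EB − EA·EB, where EA and EB are the effects of each agent alone. Combination Emax is the second-highest inhibition within the matrix. Inhibition was scaled from CellTiter-Glo 2.0 luminescence, with 0 set by vehicle wells and 1 by blank wells, after 72 hours of two-drug dosing of cells plated in 1536-well plates.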

[2] = tested on: RT4 (Bladder Carcinoma); assay: as above
How it was run: as §1

[3] = tested on: AN3-CA (Endometrial Carcinoma); assay: combination Emax (second highest fraction inhibited in the dose matrix, 72 h); higher = more inhibition; extreme values may be limits of the assay
How it was run: as §1

[4] = tested on: BALL-1 (B-Lymphoblastic Leukemia); assay: as above
How it was run: as §1

[5] = tested on: Becker (Low Grade Glioma); assay: as above
How it was run: as §1

[6] = tested on: CHL-1 (Melanoma); assay: as above
How it was run: as §1

[7] = tested on: CML-T1 (Chronic Myelogenous Leukemia); assay: as above
How it was run: as §1

[8] = tested on: Calu-6 (Non-Small Cell Lung Carcinoma); assay: as above
How it was run: as §1

[9] = tested on: HTC-C3 (Thyroid Gland Carcinoma); assay: as above
How it was run: as §1

[10] = tested on: JHH-1 (Hepatocellular Carcinoma); assay: as above
How it was run: as §1

[11] = tested on: LAMA-84 (Chronic Myelogenous Leukemia); assay: as above
How it was run: as §1

[12] = tested on: LOUCY (T-Lymphoblastic Leukemia); assay: as above
How it was run: as §1

[13] = tested on: NCI-H1155 (Non-Small Cell Lung Carcinoma); assay: as above
How it was run: as §1

[14] = tested on: NCI-H1755 (Lung Adenocarcinoma); assay: as above
How it was run: as §1

[15] = tested on: NCI-H196 (Small Cell Lung Carcinoma); assay: as above
How it was run: as §1

[16] = tested on: OCI-AML5 (Acute Myeloid Leukemia); assay: as above
How it was run: as §1

[17] = tested on: OV-90 (Ovarian Carcinoma); assay: as above
How it was run: as §1

[18] = tested on: PC-14 (Lung Adenocarcinoma); assay: as above
How it was run: as §1

[19] = tested on: RL95-2 (Endometrial Carcinoma); assay: as above
How it was run: as §1

[20] = tested on: RT4 (Bladder Carcinoma); assay: as above
How it was run: as §1

Structure (SMILES)	Bliss excess [1]	Bliss excess [2]	combination Emax [3]	combination Emax [4]	combination Emax [5]	combination Emax [6]	combination Emax [7]	combination Emax [8]	combination Emax [9]	combination Emax [10]	combination Emax [11]	combination Emax [12]	combination Emax [13]	combination Emax [14]	combination Emax [15]	combination Emax [16]	combination Emax [17]	combination Emax [18]	combination Emax [19]	combination Emax [20]
CCN(CCO)CCCOc1ccc2c(Nc3cc(CC(=O)Nc4cccc(F)c4)[nH]n3)ncnc2c1 [AZD2811] + C=CCn1c(=O)c2cnc(Nc3ccc(N4CCN(C)CC4)cc3)nc2n1-c1cccc(C(C)(C)O)n1 [AZD1775] (first compound max 1 µM, partner max 1 µM)	-0.0174	0.0196	0.308	0.986	0.167	0.658	0.915	0.727	0.3	0.335	0.917	1	0.45	0.76	0.468	0.978	0.654	0.842	0.662	0.408
CCN(CCO)CCCOc1ccc2c(Nc3cc(CC(=O)Nc4cccc(F)c4)[nH]n3)ncnc2c1 [AZD2811] + C[C@@H]1COCCN1C2=NC(=NC(=C2)C3(CC3)[S@](=N)(=O)C)C4=C5C=CNC5=NC=C4 [AZD6738] (first compound max 1 µM, 7x7, partner max 10 µM)	-0.0273	-0.0318	0.48	0.984	0.586	0.805	0.934	0.767	0.858	0.504	0.97	1	0.787	0.788	0.276	0.983	0.429	0.83	0.773	0.429
CCN(CCO)CCCOc1ccc2c(Nc3cc(CC(=O)Nc4cccc(F)c4)[nH]n3)ncnc2c1 [AZD2811] + O=C(c1cc(Cc2n[nH]c(=O)c3ccccc23)ccc1F)N1CCN(C(=O)C2CC2)CC1 [Olaparib] (first compound max 1 µM, 7x7, partner max 10 µM)	-0.0101	0.0243	0.282	0.848	0.12	0.24	0.829	0.239	0.248	0.161	0.488	0.924	0.443	0.576	0.12	0.966	0.249	0.303	0.73	0.377
CN(CCO)CC[C@H](CSc1ccccc1)Nc1ccc(S(=O)(=O)NC(=O)c2ccc(N3CCC([C@@H](O)c4ccccc4-c4ccc(Cl)cc4)CC3)cc2)cc1S(=O)(=O)C(F)(F)F [AZD4320] + C1CN(CCC1(C(=O)N[C@@H](CCO)C2=CC=C(C=C2)Cl)N)C3=NC=NC4=C3C=CN4 [Capivasertib] (first compound max 1 µM, 7x7, partner max 3 µM)	-0.0498	-0.0716	0.625	1	0.298	0.0871	0.977	0.448	0.207	0.355	0.696	1	0.904	0.303	0.175	1	0.717	0.255	0.533	0.144
CN(CCO)CC[C@H](CSc1ccccc1)Nc1ccc(S(=O)(=O)NC(=O)c2ccc(N3CCC([C@@H](O)c4ccccc4-c4ccc(Cl)cc4)CC3)cc2)cc1S(=O)(=O)C(F)(F)F [AZD4320] + C=CCn1c(=O)c2cnc(Nc3ccc(N4CCN(C)CC4)cc3)nc2n1-c1cccc(C(C)(C)O)n1 [AZD1775] (first compound max 1 µM, partner max 1 µM)	0.08	0.0755	0.468	1	0.261	0.703	1	0.928	0.742	0.918	1	1	0.908	0.854	0.671	1	0.933	0.99	0.53	0.629
CN(CCO)CC[C@H](CSc1ccccc1)Nc1ccc(S(=O)(=O)NC(=O)c2ccc(N3CCC([C@@H](O)c4ccccc4-c4ccc(Cl)cc4)CC3)cc2)cc1S(=O)(=O)C(F)(F)F [AZD4320] + CCN(CCO)CCCOc1ccc2c(Nc3cc(CC(=O)Nc4cccc(F)c4)[nH]n3)ncnc2c1 [AZD2811] (first compound max 1 µM, 7x7, partner max 1 µM)	-0.0348	0.163	0.474	1	0.224	0.73	0.994	0.801	0.347	0.82	0.906	1	0.918	0.43	0.055	1	0.743	0.395	0.92	1
CN(CCO)CC[C@H](CSc1ccccc1)Nc1ccc(S(=O)(=O)NC(=O)c2ccc(N3CCC([C@@H](O)c4ccccc4-c4ccc(Cl)cc4)CC3)cc2)cc1S(=O)(=O)C(F)(F)F [AZD4320] + CN(C)CCCOc1ccc(-c2ccc3ncc4c(c3c2)n(C2CCOCC2)c(=O)n4C)cn1 [AZD0156] (first compound max 1 µM, 7x7, partner max 1 µM)	-0.0185	-0.0057	0.27	1	0.0869	0.113	0.987	0.395	0.37	0.444	0.667	1	0.717	0.229	0.171	1	0.5	0.17	0.124	0.266
CN(CCO)CC[C@H](CSc1ccccc1)Nc1ccc(S(=O)(=O)NC(=O)c2ccc(N3CCC([C@@H](O)c4ccccc4-c4ccc(Cl)cc4)CC3)cc2)cc1S(=O)(=O)C(F)(F)F [AZD4320] + C[C@@H]1COCCN1C2=NC(=NC(=C2)C3(CC3)[S@](=N)(=O)C)C4=C5C=CNC5=NC=C4 [AZD6738] (first compound max 1 µM, 7x7, partner max 10 µM)	-0.0305	0.0064	0.637	1	0.846	0.893	1	0.891	0.881	0.838	0.989	1	0.985	0.831	0.397	1	0.917	0.93	0.751	0.791
CN(CCO)CC[C@H](CSc1ccccc1)Nc1ccc(S(=O)(=O)NC(=O)c2ccc(N3CCC([C@@H](O)c4ccccc4-c4ccc(Cl)cc4)CC3)cc2)cc1S(=O)(=O)C(F)(F)F [AZD4320] + C[C@@H](Nc1cc(F)cc(F)c1)c1cc(C(=O)N(C)C)cc2c(=O)cc(N3CCOCC3)oc12 [AZD8186] (first compound max 1 µM, 7x7, partner max 3 µM)	0.0311	0.032	0.624	1	0.431	0.408	1	0.592	0.407	0.747	0.728	1	0.97	0.45	0.517	1	0.795	0.297	0.253	0.583
CN(CCO)CC[C@H](CSc1ccccc1)Nc1ccc(S(=O)(=O)NC(=O)c2ccc(N3CCC([C@@H](O)c4ccccc4-c4ccc(Cl)cc4)CC3)cc2)cc1S(=O)(=O)C(F)(F)F [AZD4320] + Cc1cc2ncnn2cc1Nc1ncc2c(n1)n(C1CCOCC1)c(=O)n2C [AZD7648] (first compound max 1 µM, 7x7, partner max 10 µM)	0.0016	-0.004	0.445	1	0.124	0.177	0.99	0.59	0.342	0.382	0.752	1	0.772	0.286	0.128	1	0.6	0.203	0.0598	0.355
CN(CCO)CC[C@H](CSc1ccccc1)Nc1ccc(S(=O)(=O)NC(=O)c2ccc(N3CCC([C@@H](O)c4ccccc4-c4ccc(Cl)cc4)CC3)cc2)cc1S(=O)(=O)C(F)(F)F [AZD4320] + Cn1cnc2c(F)c(Nc3ccc(Br)cc3Cl)c(C(=O)NOCCO)cc21 [Selumetinib] (first compound max 1 µM, 7x7, partner max 3 µM)	0.069	0.112	0.693	1	0.259	0.389	0.996	0.837	0.707	0.8	0.99	1	0.95	0.295	0.275	1	0.981	0.333	0.667	0.601
COc1nnc2ccc(N3CCC(c4ccc(OCCN5CCN(C)C(=O)[C@H]5C)cc4)CC3)nn12 [AZD5153] + C=CCn1c(=O)c2cnc(Nc3ccc(N4CCN(C)CC4)cc3)nc2n1-c1cccc(C(C)(C)O)n1 [AZD1775] (first compound max 1 µM, partner max 1 µM)	-0.033	-0.0064	0.435	1	0.384	0.624	0.945	0.854	0.772	0.584	0.978	1	0.814	0.8	0.473	0.905	0.378	0.883	0.621	0.571
